Experimental data published in the supplement of paper PMC8253809.

Assays:
DIPGX37 = H3.3 K27M diffuse intrinsic pontine glioma line; assay: growth inhibition relative to DMSO (0) and positive control (1) (fraction); higher = more growth inhibition
Protocol: (§1)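 Paxalisib (GDC0084) x mirdametinib (PD0325901) dose matrix on pHGG cell lines and astrocyte controls, 7 days, adherent 384-well. CellTiter-Glo RLU was normalised (no log2) to fractional activity between DMSO (0) and the positive control (1). Each combination was tested in two plate orientations.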

DIPGX7 = H3.3 K27M diffuse intrinsic pontine glioma line; assay: as above
Protocol: as §1

CC1(C)OCCn2c1nc1c(N3CCOCC3)nc(-c3cnc(N)nc3)nc12 [GDC0084] + O=C(NOC[C@H](O)CO)c1ccc(F)c(F)c1Nc1ccc(I)cc1F [PD0325901]
growth inhibition
Conditions	compound 1 concentration 0.009766 µM	compound 1 concentration 0.01953 µM	compound 1 concentration 0.03906 µM	compound 1 concentration 0.07812 µM	compound 1 concentration 0.15625 µM	compound 1 concentration 0.3125 µM	compound 1 concentration 0.625 µM	compound 1 concentration 1.25 µM	compound 1 concentration 5 µM	compound 1 concentration 20 µM
DIPGX7, compound 2 concentration 0.03906 µM	-0.121	-0.103	-0.085	0.0493	0.217	0.56	0.762	0.886	0.945	0.998
DIPGX7, compound 2 concentration 0.07812 µM	-0.0496	9.09e-05	0.0209	0.0495	0.252	0.537	0.775	0.88	0.956	0.997
DIPGX7, compound 2 concentration 0.15625 µM	-0.0185	0.0149	0.038	0.0769	0.248	0.507	0.771	0.891	0.965	0.999
DIPGX7, compound 2 concentration 0.3125 µM	-0.0519	0.0198	0.0847	0.101	0.248	0.522	0.802	0.91	0.983	1
DIPGX7, compound 2 concentration 0.625 µM	0.0193	0.0541	0.102	0.141	0.301	0.534	0.825	0.938	0.992	1
DIPGX7, compound 2 concentration 1.25 µM	0.138	0.158	0.168	0.231	0.351	0.606	0.868	0.961	0.998	1
DIPGX7, compound 2 concentration 5 µM	0.215	0.278	0.311	0.354	0.555	0.784	0.933	0.986	1	1
DIPGX7, compound 2 concentration 20 µM	0.18	0.195	0.238	0.323	0.539	0.765	0.933	0.988	1	1
DIPGX37, compound 2 concentration 0.03906 µM	-0.147	-0.0916	-0.0557	0.033	0.217	0.429	0.588	0.762	0.979	1
DIPGX37, compound 2 concentration 0.07812 µM	-0.0133	0.012	0.0971	0.209	0.356	0.514	0.694	0.823	0.99	1
DIPGX37, compound 2 concentration 0.15625 µM	0.0798	0.113	0.192	0.297	0.433	0.58	0.744	0.879	0.999	1
DIPGX37, compound 2 concentration 0.3125 µM	0.186	0.271	0.3	0.445	0.556	0.699	0.84	0.924	1	1
DIPGX37, compound 2 concentration 0.625 µM	0.277	0.368	0.441	0.522	0.6	0.787	0.891	0.948	1	1
DIPGX37, compound 2 concentration 1.25 µM	0.458	0.508	0.592	0.657	0.743	0.882	0.953	0.984	1	1
DIPGX37, compound 2 concentration 5 µM	0.832	0.876	0.906	0.917	0.94	0.986	1	1	1	1
DIPGX37, compound 2 concentration 20 µM	0.97	0.98	0.984	0.994	0.997	1	1	1	1	1
